Where two headings read alike, the source gives them in different places.

Results on 47 molecules are retold here after US20260265246A1 (ICAHN SCHOOL OF MEDICINE AT MOUNT SINAI, priority 2021, published 2026).

For test [1], the target named is T1, 5HT2A receptor (Homo sapiens, UniProt P28223). Nature of the test: biochemical. It counts as binding. The arrangement: expressed in transfected cells; crude membranes. The conditions noted are these: 5HT2A Ki (nM).
The target of test [2] is T1, 5HT2A receptor. Description: cell-based. The arrangement: expressed in transfected cells; host or cells: HEK293T cells, transient co-transfection. The conditions noted are these: HEK-293T, BRET1 beta-arrestin2 recruitment, HEK293T cells, normalized to 5-HT; read-out: 5HT2A β-Arr Emax (%). A general note: Bioluminescence resonance energy transfer reports proximity on the nanometre scale.

Test [3] addresses T1, 5HT2A receptor. Description: cell-based. Set-up: expressed in transfected cells; host or cells: HEK293T cells, transient co-transfection. The conditions noted are these: HEK-293T, BRET2 Gαq dissociation, HEK293T cells, normalized to 5-HT; read-out: 5HT2A Gq Emax (%).
Setting [4] is: secondary binding assay, Cheng-Prusoff.
Setting [5] is: secondary radioligand binding, Ki from IC50 by Cheng-Prusoff.

T1 sequence (P28223 whole entry): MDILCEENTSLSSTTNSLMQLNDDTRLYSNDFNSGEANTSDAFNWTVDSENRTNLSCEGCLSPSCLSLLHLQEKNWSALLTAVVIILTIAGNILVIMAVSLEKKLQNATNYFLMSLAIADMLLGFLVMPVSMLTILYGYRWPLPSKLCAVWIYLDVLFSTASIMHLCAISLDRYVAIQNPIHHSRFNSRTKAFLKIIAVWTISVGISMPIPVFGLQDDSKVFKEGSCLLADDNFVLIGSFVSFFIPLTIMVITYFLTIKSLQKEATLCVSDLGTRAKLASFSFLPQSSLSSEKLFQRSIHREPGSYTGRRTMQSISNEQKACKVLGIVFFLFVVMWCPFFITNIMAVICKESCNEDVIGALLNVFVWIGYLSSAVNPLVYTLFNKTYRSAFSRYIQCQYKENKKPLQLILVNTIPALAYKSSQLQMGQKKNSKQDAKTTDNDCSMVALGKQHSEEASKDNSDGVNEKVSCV

On 5HT2A receptor [1] (setting [4]), `CCCN1CCOC(c2c[nH]c3c(Cl)cccc23)C1` (stereo not drawn) [Example 247, 2-(7-chloro-1H-indol-3-yl)-4-propylmorpholine] yielded a Ki of 2560 nM.

`Clc1cccc2c(-c3cccnc3)n[nH]c12` [Example 214, 7-chloro-3-(pyridin-3-yl)-1H-indazole]: the Ki on 5HT2A receptor [1] (setting [4]) is greater than 10000 nM.

Molecule `Clc1cccc2c(C3=CCCN(C4CCC4)C3)n[nH]c12` [Example 174, 7-chloro-3-(1-cyclobutyl-1,2,5,6-tetrahydropyridin-3-yl)-1H-indazole] gave a Ki at 5HT2A receptor [1] (setting [4]) of 9760 nM.

In turn, `CN1CC2C=C(c3n[nH]c4c(Cl)cccc34)C1CC2` (stereo not drawn) [Example 224, 6-(7-chloro-1H-indazol-3-yl)-2-methyl-2-azabicyclo[2.2.2]oct-5-ene] showed an inhibitory constant (Ki) at 5HT2A receptor [1] (setting [4]) of 8880 nM. The Ki values of the last two molecules are within 1.5-fold of each other.

At 5HT2A receptor [1] (setting [5]), `CN1CCC=C(c2n[nH]c3cc(C#N)ccc23)C1` [Example 96, 3-(1-methyl-1,2,5,6-tetrahydropyridin-3-yl)-1H-indazole-6-carbonitrile] registered a Ki of 5470 nM.

For `Cc1ccc2c(C3=CCCN(C)C3)n[nH]c2c1` [Example 93, 6-methyl-3-(1-methyl-1,2,5,6-tetrahydropyridin-3-yl)-1H-indazole], the Ki on 5HT2A receptor [1] (setting [5]) came to 2920 nM.

Consider `CC(C)(C)c1cccc2c(C3=CCCN(Cc4ccccc4)C3)c[nH]c12` [Example 72, 3-(1-benzyl-1,2,5,6-tetrahydropyridin-3-yl)-7-tert-butyl-1H-indole], for which the affinity at 5HT2A receptor [1] (setting [5]), expressed as Ki, was 734 nM. This Ki is about 4-fold lower than that of the molecule before.

`COc1ccc2c(C3=CCCNC3)c[nH]c2c1` [Example 35, 6-methoxy-3-(1,2,5,6-tetrahydropyridin-3-yl)-1H-indole] yielded an inhibition constant Ki at 5HT2A receptor [1] (setting [5]) greater than 10000 nM.

As to `CCCN1CCC=C(c2n[nH]c3c(C#N)cccc23)C1` [Example 176, 3-(1-propyl-1,2,5,6-tetrahydropyridin-3-yl)-1H-indazole-7-carbonitrile], the Ki at 5HT2A receptor [1] (setting [4]) is greater than 10000 nM.

`Clc1cccn2c(C3=CCCNC3)cnc12` [Example 110, 8-chloro-3-(1,2,5,6-tetrahydropyridin-3-yl)imidazo[1,2-a]pyridine] registered a Ki at 5HT2A receptor [1] (setting [5]) greater than 10000 nM.

The molecule `C1=C(c2c[nH]c3cc(-c4ccccc4)ccc23)CNCC1` [Example 39, 6-phenyl-3-(1,2,5,6-tetrahydropyridin-3-yl)-1H-indole] yielded an inhibitory constant (Ki) at 5HT2A receptor [1] (setting [5]) of 6760 nM.

Molecule `Cc1cnc2[nH]cc(C3=CCCNC3)c2c1` [Example 1, 5-methyl-3-(1,2,5,6-tetrahydropyridin-3-yl)-1H-pyrrolo[2,3-b]pyridine] registered a Ki at 5HT2A receptor [1] (setting [5]) of 1720 nM.

`CN1CCC2CC2(c2n[nH]c3c(Cl)cccc23)C1` (stereo not drawn) [Example 197, 7-chloro-3-(3-methyl-3-azabicyclo[4.1.0]heptan-1-yl)-1H-indazole]: the affinity on 5HT2A receptor [1] (setting [4]) corresponds to a Ki of 1200 nM.

Consider `CC(C)c1cccc2c(C3=CCCN(C)C3)c[nH]c12` [Example 54, 7-isopropyl-3-(1-methyl-1,2,5,6-tetrahydropyridin-3-yl)-1H-indole], for which, on 5HT2A receptor [1] (setting [5]), the Ki was found to be 510 nM.

At 5HT2A receptor [1] (setting [5]), `CN1CCC=C(c2c[nH]c3ccc(-c4ccccc4)cc23)C1` [Example 28, 3-(1-methyl-1,2,5,6-tetrahydropyridin-3-yl)-5-phenyl-1H-indole] had a Ki of 498 nM.

Regarding `Cc1cccc2c(C34CNCCC3C4)n[nH]c12` (stereo not drawn) [Example 193, 3-(3-azabicyclo[4.1.0]heptan-1-yl)-7-methyl-1H-indazole], the Ki on 5HT2A receptor [1] (setting [4]) is greater than 10000 nM.

For `Cc1ccc2c(C3=CCCN(C)C3)c[nH]c2c1` [Example 30, 6-methyl-3-(1-methyl-1,2,5,6-tetrahydropyridin-3-yl)-1H-indole], on 5HT2A receptor [1] (setting [5]), the Ki was 647 nM.

With `CC(C)c1ccc2[nH]cc(C3=CCCN(C)C3)c2c1` [Example 24, 5-isopropyl-3-(1-methyl-1,2,5,6-tetrahydropyridin-3-yl)-1H-indole], the affinity at 5HT2A receptor [1] (setting [5]), expressed as Ki, was 105 nM.

In turn, `Cc1cccn2c(C3=CCCNC3)cnc12` [Example 112, 8-methyl-3-(1,2,5,6-tetrahydropyridin-3-yl)imidazo[1,2-a]pyridine] yielded a Ki on 5HT2A receptor [1] (setting [5]) of 9040 nM.

On to `C1=C(c2c[nH]c3ccc(-c4ccccc4)cc23)CNCC1` [Example 27, 5-phenyl-3-(1,2,5,6-tetrahydropyridin-3-yl)-1H-indole], for which the Ki on 5HT2A receptor [1] (setting [5]) came out at 1480 nM.

On 5HT2A receptor [1] (setting [4]), `FC1(F)CC(N2CCC=C(c3n[nH]c4c(Cl)cccc34)C2)C1` [Example 179, 7-chloro-3-(1-(3,3-difluorocyclobutyl)-1,2,5,6-tetrahydropyridin-3-yl)-1H-indazole] had a Ki of 8620 nM.

Consider `Clc1cccc2c(-c3cn[nH]c3)n[nH]c12` [Example 218, 7-chloro-3-(1H-pyrazol-4-yl)-1H-indazole], for which the Ki at 5HT2A receptor [1] (setting [4]) stood at 1720 nM.

`CN1CCC(c2n[nH]c3c(Cl)cccc23)CC1` [Example 240, 7-chloro-3-(1-methylpiperidin-4-yl)-1H-indazole]: the Ki on 5HT2A receptor [1] (setting [4]) was found to be 378 nM.

Molecule `CCCN1CCC=C(c2c[nH]c3cnccc23)C1` [Example 143, 3-(1-propyl-1,2,5,6-tetrahydropyridin-3-yl)-1H-pyrrolo[2,3-c]pyridine] had a Ki on 5HT2A receptor [1] (setting [4]) of 9760 nM. This Ki is about 26-fold higher than that of the molecule before.

Turning to `CCCN1CCC=C(c2n[nH]c3c(Cl)ccc(F)c23)C1` [Example 177, 7-chloro-4-fluoro-3-(1-propyl-1,2,5,6-tetrahydropyridin-3-yl)-1H-indazole], on 5HT2A receptor [1] (setting [4]), the Ki stood at 1830 nM.

`COc1ccc2[nH]nc(C3=CCCNC3)c2c1` [Example 87, 5-methoxy-3-(1,2,5,6-tetrahydropyridin-3-yl)-1H-indazole]: the Emax at 5HT2A receptor [2] was 80%; on 5HT2A receptor [3] it was 84.2%.

As for `Cc1cccc2c(C3=CCN(C)CCC3)n[nH]c12` [Example 205, 7-methyl-3-(1-methyl-2,5,6,7-tetrahydro-1H-azepin-4-yl)-1H-indazole], the affinity at 5HT2A receptor [1] (setting [4]), expressed as Ki, was 217 nM.

Take `CN1CCC=C(c2c[nH]c3cc(-c4ccccc4)ccc23)C1` [Example 40, 3-(1-methyl-1,2,5,6-tetrahydropyridin-3-yl)-6-phenyl-1H-indole]: the Ki on 5HT2A receptor [1] (setting [5]) stood at 1330 nM.

In turn, `CC(C)c1ccc2c(C3=CCCNC3)c[nH]c2c1` [Example 33, 6-isopropyl-3-(1,2,5,6-tetrahydropyridin-3-yl)-1H-indole] gave a Ki on 5HT2A receptor [1] (setting [5]) of 1260 nM.

At 5HT2A receptor [1] (setting [4]), `Clc1cccc2c(C3CN4CCC3CC4)c[nH]c12` (stereo not drawn) [Example 251, 3-(7-chloro-1H-indol-3-yl)quinuclidine] gave a Ki of 1100 nM.

In the case of `N#Cc1cccc2c(C34CNCCC3C4(F)F)n[nH]c12` (stereo not drawn) [Example 192, 3-(7,7-difluoro-3-azabicyclo[4.1.0]heptan-1-yl)-1H-indazole-7-carbonitrile], the Ki on 5HT2A receptor [1] (setting [4]) was greater than 10000 nM.

As for `Fc1cccc2c(C34CNCCC3C4(F)F)n[nH]c12` (stereo not drawn) [Example 190, 3-(7,7-difluoro-3-azabicyclo[4.1.0]heptan-1-yl)-7-fluoro-1H-indazole], at 5HT2A receptor [1] (setting [4]), affinity was put at a Ki of 5370 nM.

Take `Fc1cccn2c(C3=CCCNC3)cnc12` [Example 111, 8-fluoro-3-(1,2,5,6-tetrahydropyridin-3-yl)imidazo[1,2-a]pyridine]: the Ki at 5HT2A receptor [1] (setting [5]) is greater than 10000 nM.

`CCCc1cccc2c(C3CCCN(C)C3)c[nH]c12` (stereo not drawn) [Example 235, 3-(1-methylpiperidin-3-yl)-7-propyl-1H-indole] came in with an inhibition constant Ki on 5HT2A receptor [1] (setting [4]) of 5550 nM.

As to `CN1CCC=C(c2c[nH]c3c(C(C)(C)C)cccc23)C1` [Example 55, 7-(tert-butyl)-3-(1-methyl-1,2,5,6-tetrahydropyridin-3-yl)-1H-indole], the affinity on 5HT2A receptor [1] (setting [5]), expressed as Ki, was 374 nM.

The molecule `CN1CCC=C(c2c[nH]c3cc(C(C)(C)C)ccc23)C1` [Example 38, 6-(tert-butyl)-3-(1-methyl-1,2,5,6-tetrahydropyridin-3-yl)-1H-indole] registered a Ki at 5HT2A receptor [1] (setting [5]) of 7880 nM.

Turning to `COc1cccc2c(C3=CCCN(C)C3)n[nH]c12` [Example 109, 7-methoxy-3-(1-methyl-1,2,5,6-tetrahydropyridin-3-yl)-1H-indazole], the Ki at 5HT2A receptor [1] (setting [5]) was greater than 10000 nM.

`Cc1cccc2c(C3=CCNCCC3)n[nH]c12` [Example 204, 7-methyl-3-(2,5,6,7-tetrahydro-1H-azepin-4-yl)-1H-indazole]: at 5HT2A receptor [1] (setting [4]), the Ki was 158 nM.

`CN1CCC=C(c2c[nH]c3c(C(=O)O)cccc23)C1` [Example 57, 3-(1-methyl-1,2,5,6-tetrahydropyridin-3-yl)-1H-indole-7-carboxylic acid] yielded a Ki on 5HT2A receptor [1] (setting [5]) greater than 10000 nM.

As for `Cc1cccc2c(C3CN4CCC3CC4)c[nH]c12` (stereo not drawn) [Example 253, 3-(7-methyl-1H-indol-3-yl)quinuclidine], the inhibition constant (Ki) at 5HT2A receptor [1] (setting [4]) is greater than 10000 nM.

`OCc1cccc2c(C3=CCCN(Cc4ccccc4)C3)c[nH]c12` [Example 75, (3-(1-benzyl-1,2,5,6-tetrahydropyridin-3-yl)-1H-indol-7-yl)methanol] registered an inhibition constant Ki at 5HT2A receptor [1] (setting [5]) greater than 10000 nM.

The molecule `COc1cccc2c(C3=CCCNC3)n[nH]c12` [Example 92, 7-methoxy-3-(1,2,5,6-tetrahydropyridin-3-yl)-1H-indazole] came in with a Ki on 5HT2A receptor [1] (setting [5]) of 1090 nM. That is a single-digit micromolar value.

Molecule `Fc1cccc2c(C34CNCC3C4(F)F)n[nH]c12` (stereo not drawn) [Example 201, 3-(6,6-difluoro-3-azabicyclo[3.1.0]hexan-1-yl)-7-fluoro-1H-indazole] registered a Ki at 5HT2A receptor [1] (setting [4]) of 4310 nM.

In the case of `CN1CCN(c2n[nH]c3c(C#N)cccc23)CC1` [Example 233, 3-(4-methylpiperazin-1-yl)-1H-indazole-7-carbonitrile], the Ki on 5HT2A receptor [1] (setting [4]) was 4830 nM.

On 5HT2A receptor [1] (setting [5]), `COc1cccc2c(C3=CCCNC3)c[nH]c12` [Example 51, 7-methoxy-3-(1,2,5,6-tetrahydropyridin-3-yl)-1H-indole] returned an inhibition constant (Ki) greater than 10000 nM.

The molecule `COc1ccc2c(C3=CCCN(C)C3)c[nH]c2c1` [Example 36, 6-methoxy-3-(1-methyl-1,2,5,6-tetrahydropyridin-3-yl)-1H-indole] yielded a Ki on 5HT2A receptor [1] (setting [5]) of 8500 nM.

Molecule `CC(C)c1cccc2c(C3=CCCN(Cc4ccccc4)C3)c[nH]c12` [Example 70, 3-(1-benzyl-1,2,5,6-tetrahydropyridin-3-yl)-7-(propan-2-yl)-1H-indole] registered an inhibitory constant (Ki) at 5HT2A receptor [1] (setting [5]) of 2050 nM.

As a reminder, the Ki is a dissociation constant, usually derived from enzyme kinetics or from competition with a known ligand. The low end stands for tighter binding, the high end for weaker binding. What is called Emax is the greatest response seen or fitted, relative to the assay's reference.
